Reference: ChEMBL document CHEMBL4616704, “Discovery of an Atropisomeric PI3Kβ Selective Inhibitor through Optimization of the Hinge Binding Motif” (ACS Med Chem Lett, 2020)

What was measured:
[1] = target: Phosphatidylinositol 4,5-bisphosphate 3-kinase catalytic subunit gamma isoform (Homo sapiens, UniProt P48736); assay: Inhibition of human full length p110gamma using PIP2 as substrate after 30 mins in presence of ATP at 2xKm concentration by TR-FRET assay
Cytochrome P450 3A4 = Cytochrome P450 3A4 (Homo sapiens, UniProt P08684); assay: Inhibition of human CYP3A4; assay type: ADME
Chain of Cytochrome P450 3A4 (P08684 whole entry, the tested form may be a part): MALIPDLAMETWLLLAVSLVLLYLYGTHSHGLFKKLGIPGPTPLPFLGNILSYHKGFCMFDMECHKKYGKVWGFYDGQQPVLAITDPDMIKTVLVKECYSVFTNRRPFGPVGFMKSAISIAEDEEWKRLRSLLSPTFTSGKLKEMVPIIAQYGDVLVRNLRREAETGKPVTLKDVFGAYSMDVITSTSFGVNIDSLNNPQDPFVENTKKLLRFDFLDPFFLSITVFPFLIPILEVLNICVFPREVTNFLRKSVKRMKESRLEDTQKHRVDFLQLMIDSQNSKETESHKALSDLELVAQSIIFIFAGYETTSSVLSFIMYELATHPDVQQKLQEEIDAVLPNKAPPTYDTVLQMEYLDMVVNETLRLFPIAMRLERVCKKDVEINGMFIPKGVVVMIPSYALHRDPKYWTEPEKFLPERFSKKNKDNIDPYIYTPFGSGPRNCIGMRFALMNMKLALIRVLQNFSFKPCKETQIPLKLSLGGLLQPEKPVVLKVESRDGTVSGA

[2] = MRT in Sprague-Dawley rat at 1 mg/kg administered as iv infusion for 30 mins and measured after 24 hrs by ESI-LC/MS/MS analysis; assay type: ADME, organism-based; settings: in vivo
[3] = Oral bioavailability in Sprague-Dawley rat at 5 mg/kg dosed via gavage after 24 hrs by ESI-LC/MS/MS analysis; assay type: ADME, organism-based; settings: in vivo
[4] = Clearance in Beagle dog at 1 mg/kg administered as iv infusion for 30 mins and measured after 24 hrs by ESI-LC/MS/MS analysis; assay type: ADME, organism-based, Canis lupus familiaris; settings: in vivo
[5] = Terminal half life in Beagle dog at 1 mg/kg administered as iv infusion for 30 mins and measured after 24 hrs by ESI-LC/MS/MS analysis; assay type: ADME, organism-based, Canis lupus familiaris; settings: in vivo, read-out: beta t1/2 (converted)
[6] = Terminal half life in cynomolgus monkey at 1 mg/kg administered as iv infusion for 30 mins and measured after 24 hrs by ESI-LC/MS/MS analysis; assay type: ADME, organism-based, Macaca fascicularis; settings: in vivo, read-out: beta t1/2 (converted)
[7] = Volume of distribution at steady state in rhesus monkey at 1 mg/kg administered as iv infusion for 30 mins and measured after 24 hrs by ESI-LC/MS/MS analysis; assay type: ADME, organism-based, Macaca mulatta; settings: in vivo, read-out: Vdss
[8] = MRT in rhesus monkey at 1 mg/kg administered as iv infusion for 30 mins and measured after 24 hrs by ESI-LC/MS/MS analysis; assay type: ADME, organism-based, Macaca mulatta; settings: in vivo
[9] = Ocular toxicity in Beagle dog assessed as irreversible damage by measuring choroidal inflammation at 10 to 100 mg/kg/day administered for 7 days measured on day 6 by ERG and OCT analysis; assay type: organism-based, Canis lupus familiaris; settings: in vivo, 168 h

Chain of Phosphatidylinositol 4,5-bisphosphate 3-kinase catalytic subunit gamma isoform (P48736 whole entry, canonical isoform): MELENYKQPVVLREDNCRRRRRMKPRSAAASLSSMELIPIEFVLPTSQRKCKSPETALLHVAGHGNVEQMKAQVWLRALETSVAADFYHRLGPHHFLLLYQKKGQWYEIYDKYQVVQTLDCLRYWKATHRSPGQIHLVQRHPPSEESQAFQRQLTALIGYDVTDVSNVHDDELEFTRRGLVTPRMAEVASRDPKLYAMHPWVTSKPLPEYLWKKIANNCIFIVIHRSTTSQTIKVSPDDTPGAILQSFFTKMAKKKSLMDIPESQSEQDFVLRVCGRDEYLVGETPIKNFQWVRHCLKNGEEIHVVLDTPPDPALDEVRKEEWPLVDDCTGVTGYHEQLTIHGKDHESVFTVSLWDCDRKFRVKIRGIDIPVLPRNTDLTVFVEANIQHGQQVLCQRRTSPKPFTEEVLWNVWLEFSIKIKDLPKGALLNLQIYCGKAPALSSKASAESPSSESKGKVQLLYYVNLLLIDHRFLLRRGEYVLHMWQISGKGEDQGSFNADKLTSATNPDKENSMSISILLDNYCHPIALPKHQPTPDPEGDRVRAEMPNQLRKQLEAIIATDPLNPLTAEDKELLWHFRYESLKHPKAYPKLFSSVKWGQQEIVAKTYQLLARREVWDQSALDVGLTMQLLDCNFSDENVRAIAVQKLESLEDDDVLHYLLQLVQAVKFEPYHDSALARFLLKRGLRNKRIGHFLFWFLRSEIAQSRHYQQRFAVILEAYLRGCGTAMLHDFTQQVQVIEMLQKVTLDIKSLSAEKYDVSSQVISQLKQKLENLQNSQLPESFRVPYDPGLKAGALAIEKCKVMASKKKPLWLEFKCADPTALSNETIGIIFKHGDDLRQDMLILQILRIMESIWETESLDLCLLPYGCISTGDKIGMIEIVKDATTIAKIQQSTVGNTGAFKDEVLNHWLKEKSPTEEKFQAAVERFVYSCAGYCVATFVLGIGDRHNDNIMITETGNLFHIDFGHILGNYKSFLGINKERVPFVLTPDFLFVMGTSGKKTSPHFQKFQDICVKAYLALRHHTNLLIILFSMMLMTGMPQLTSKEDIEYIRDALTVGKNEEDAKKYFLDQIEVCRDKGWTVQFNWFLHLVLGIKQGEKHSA

Cc1nc2c(-c3nnc[nH]3)cc(-c3ccnc(C#N)c3)cc2n1-c1ccnc2c(F)ccc(F)c12
IC50 [1]: 6.61 µM | IC50 (Cytochrome P450 3A4): 24 µM | MRT [2]: 1.3 h | bioavailability [3]: 53% | clearance [4]: 5.67 mL/min/kg | half-life [5]: 5.5 h | half-life [6]: 4.1 h | Vd [7]: 2.6 L/kg | MRT [8]: 5.5 h | Activity [9]: Toxic
